Experimental data: patent publication US5424325A, “Aminoketone derivatives” (Mitsubishi Kasei Corporation, priority 1992, dated 1995)

Experiments:
m-calpain = molecular target: T1, m-calpain (Rattus norvegicus, UniProt Q07009); experiment: Measurement of inhibitory activity against thiol protease (m-calpain purified from rat brain); type: biochemical; settings: m-calpain purified from a brain of rat
T1 construct: m-calpain was purified from a brain of rat; from tissue; host or cells: rat brain
T1 sequence (Q07009 20-700 limits assumed): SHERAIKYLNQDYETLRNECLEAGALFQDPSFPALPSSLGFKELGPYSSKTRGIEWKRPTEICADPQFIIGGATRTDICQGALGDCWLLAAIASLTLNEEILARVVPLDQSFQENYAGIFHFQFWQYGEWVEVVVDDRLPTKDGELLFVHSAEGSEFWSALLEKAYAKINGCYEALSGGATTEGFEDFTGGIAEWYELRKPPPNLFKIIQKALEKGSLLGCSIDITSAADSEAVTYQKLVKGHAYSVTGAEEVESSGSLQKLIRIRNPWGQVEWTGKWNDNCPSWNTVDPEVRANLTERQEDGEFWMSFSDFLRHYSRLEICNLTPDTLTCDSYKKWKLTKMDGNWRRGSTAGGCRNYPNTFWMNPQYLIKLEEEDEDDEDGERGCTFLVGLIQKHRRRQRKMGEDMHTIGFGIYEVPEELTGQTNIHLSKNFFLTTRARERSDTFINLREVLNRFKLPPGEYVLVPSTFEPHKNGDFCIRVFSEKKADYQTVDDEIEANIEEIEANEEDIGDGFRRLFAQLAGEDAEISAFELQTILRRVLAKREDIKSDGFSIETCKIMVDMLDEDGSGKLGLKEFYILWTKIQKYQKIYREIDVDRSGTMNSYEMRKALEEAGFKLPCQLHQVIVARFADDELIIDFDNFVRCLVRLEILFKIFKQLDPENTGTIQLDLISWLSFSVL
T1 sequence (Q64537 1-270 partner): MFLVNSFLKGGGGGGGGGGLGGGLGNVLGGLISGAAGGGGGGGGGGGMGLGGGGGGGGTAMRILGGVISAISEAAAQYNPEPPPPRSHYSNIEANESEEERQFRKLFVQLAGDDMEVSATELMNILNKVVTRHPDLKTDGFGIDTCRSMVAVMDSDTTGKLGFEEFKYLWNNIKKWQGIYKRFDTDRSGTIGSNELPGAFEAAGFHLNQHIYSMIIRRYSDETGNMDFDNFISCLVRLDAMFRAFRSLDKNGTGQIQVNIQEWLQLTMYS
Description: Measurement of Inhibitory Activity against Thiol Protease
Through the known method disclosed in Journal of Biological Chemistry, vol. 259, page 3210, 1984, m-calpain was purified from a brain of rat. The inhibitory activity against it was measured and determined according to the method disclosed in Journal of Biological Chemistry, vol. 259, page 12489, 1984.

[1] = test system: microtubule-associated protein; settings: after the brain ischemia; cited from earlier work
[2] = test system: brain trauma models of rat; settings: cited from earlier work

Row | IC50 (m-calpain) [µM] | SMILES | further results
1 | 12.2 | CCCC[C@H](NC(=O)COc1ccccc1)C(=O)CSCc1ccsc1 [17 (No. 86), (S)-3-phenoxyacetylamino-1-(3-thienylmethylthio)-2-heptanone] | 
2 | 13 | CCCC[C@H](NC(=O)COc1cccc(OC)c1)C(=O)CSCc1ccsc1 [18 (No. 87), (S)-3-(3-methoxyphenoxyacetylamino)-1-(3-thienylmethylthio)-2-heptanone] | 
3 | 17 | O=C(COc1ccccc1)N[C@@H](Cc1ccccc1)C(=O)CSCc1ccco1 [38 (No. 171), (S)-1-furfurylthio-3-phenoxyacetylamino-4-phenyl-2-butanone] | 
4 | 4.5 | COc1cccc(OCC(=O)N[C@@H](Cc2ccccc2)C(=O)CSCc2ccsc2)c1 [58 (No. 216), (S)-3-(3-methoxyphenoxyacetylamino)-4-phenyl-1-(3-thienylmethylthio)-2-butanone] | 
5 | 14.5 | COc1ccc(/C=C/C(=O)N[C@@H](Cc2ccccc2)C(=O)CSCc2ccsc2)c(OC)c1 [60 (No. 219), (S)-3-(2,4-dimethoxycinnamoylamino)-4-phenyl-1-(3-thienylmethylthio)-2-butanone] | 
6 |  | CC(C)CCNC(=O)[C@H](CC(C)C)NC(=O)[C@H]1O[C@@H]1C(=O)O [E-64-C] | degradation of microtubule-associated protein [1]: inhibits the degradation of microtubule-associated protein after the brain ischemia
7 |  | CC(=O)N[C@@H](CC(C)C)C(=O)N[C@@H](CC(C)C)C(=O)N[C@H](C=O)CCCNC(=N)N [leupeptin] | protection of axon [2]: can protect axon
